Consider three molecules from article doi:10.1101/2023.09.04.556216v2 (bioRxiv, 2023).

Numbered stars: 1 amine (or outer) side, 2 acyl side, 3 side chain; on linkers, the order of the positions; unused ones are H or OH. Bridge positions count the residues as written; N and C are the ends. Peptide text beside a SMILES is read from it. Biphenyl(4,4'-CH2)2 = c1cc(-c2ccc(C[*:2])cc2)ccc1C[*:1]

One data set deals with PC3 xenograft tumor. The data set is described as follows: PC3 xenograft tumor model. The data set is classed as in vivo, BALB/c nude mice. As to conditions: for decrease of Ki67 in tumor (IHC) / increase of caspase-3 expression in tumor (IHC) / reduction in METTL3 expression in tumor (IHC) / reduction in m6A levels in tumor (IHC): 20 mg/kg peritumoral; for reduction in METTL3 expression in tumor (IHC) / reduction in m6A levels in tumor (IHC): compared to R9 and PBS groups; for average tumor mass relative to PBS group: 20 mg/kg, 10 days of treatment, Fig. S19c.

The next data set has as its system PC3 or DU145. The data set is described as follows: Colony formation assay. The settings on record: 15 μM peptide, PC3 or DU145, n=3. In kind it is cell-based.
For another data set, the target named is METTL3 (Homo sapiens, UniProt Q86U44). The data set is described as follows: Western blot of METTL3/METTL14 level and half-life. In kind it is cell-based. The settings on record: for METTL3 half-life: PC3 cells pre-treated with cycloheximide (CHX), WB, 25 μM over 12 h; for METTL3 (and METTL14) protein levels by WB: PC3 cells, RSM3 25 μM, 12 h. (In western blotting, separated proteins are transferred to a membrane and probed.)
METTL3, sequence (Q86U44 whole entry): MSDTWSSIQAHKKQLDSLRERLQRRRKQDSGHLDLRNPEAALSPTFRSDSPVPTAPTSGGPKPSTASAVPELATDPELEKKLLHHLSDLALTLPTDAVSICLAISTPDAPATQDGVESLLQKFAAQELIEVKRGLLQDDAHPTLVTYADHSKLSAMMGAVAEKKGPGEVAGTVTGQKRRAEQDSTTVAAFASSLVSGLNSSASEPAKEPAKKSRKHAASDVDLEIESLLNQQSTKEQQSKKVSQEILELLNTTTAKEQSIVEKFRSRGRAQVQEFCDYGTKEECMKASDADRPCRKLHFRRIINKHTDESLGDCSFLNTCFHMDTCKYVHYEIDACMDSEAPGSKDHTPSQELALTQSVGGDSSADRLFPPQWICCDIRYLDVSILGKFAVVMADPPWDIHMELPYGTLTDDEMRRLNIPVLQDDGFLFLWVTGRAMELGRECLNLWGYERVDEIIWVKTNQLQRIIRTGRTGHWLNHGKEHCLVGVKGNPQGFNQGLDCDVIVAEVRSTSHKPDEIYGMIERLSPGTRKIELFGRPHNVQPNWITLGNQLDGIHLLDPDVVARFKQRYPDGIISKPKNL

Another data set deals with PCa cells. The data set is described as follows: EdU labeling of cell proliferation. In kind it is cell-based. As to conditions: 15 μM peptide, EdU labeling 2 h.
The next data set relates to m6A modification. Kind of data set: m6A ELISA in cells. The settings on record: PC3 or DU145 cells, Fig. 5f. In kind it is cell-based.
Data set [1] relates to PC3 cells. Kind of data set: Cell viability. The data set is classed as cell-based. The arrangement: unit not given beside the values. The settings on record: comparison experiment Fig. S17, unit not given.
The nature of data set [2]: Serum stability in 25% FBS. In kind it is in vitro ADME, bovine. As to conditions: 25% FBS (serum:buffer 1:3), pH 7.4.
For another data set, the system named is DU145. The data set is described as follows: Annexin V-FITC flow cytometry apoptosis, DU145. The data set is classed as cell-based. As to conditions: 15 μM peptide, PBS ∼5%. On the technique in general: In flow cytometry, cells or beads pass a laser one at a time.
The test system of data set [3] is PC3 cells. The data set is described as follows: Annexin V-FITC flow cytometry apoptosis, PC3. In kind it is cell-based. The settings on record: 15 μM peptide.
Another data set deals with METTL3/METTL14 complex (Homo sapiens, UniProt Q86U44). The data set is described as follows: Co-Immunoprecipitation of METTL3 and METTL14. The data set is classed as cell-based. The settings on record: Co-IP, quantitative analysis, Fig. S11.
METTL3/METTL14 complex, sequence (Q86U44 whole entry, one chain of several): as the sequence (Q86U44 whole entry) above
In a further data set the test system is DU145 cells. Kind of data set: Cell viability. In kind it is cell-based. Details: unit not given beside the values. The settings on record: comparison experiment Fig. S17, unit not given.
Data set [4] relates to PC3 cells. The data set is described as follows: Flow cytometry cell cycle analysis, PC3. In kind it is cell-based. The settings on record: 15 µM, 12 h, PBS group ∼8.5%.
A further data set has as its system ASPC-1 xenograft tumors. Kind of data set: ASPC-1 xenograft tumor model. The data set is classed as in vivo, mice. As to conditions: 20 mg/kg, 10 days of treatment.
The mark [5] stands for this setting: peri-tumoral injection 20 mg/kg every two days for two weeks.

Regarding `CSCC[C@H](NC(=O)[C@H](CS)NC(=O)[C@H](CCCNC(=N)N)NC(=O)[C@H](CCCNC(=N)N)NC(=O)[C@H](CCCNC(=N)N)NC(=O)[C@H](CCCNC(=N)N)NC(=O)[C@H](CCCNC(=N)N)NC(=O)[C@H](CCCNC(=N)N)NC(=O)[C@H](CCCNC(=N)N)NC(=O)[C@H](CCCNC(=N)N)NC(=O)[C@H](CCCNC(=N)N)NC(=O)[C@@H](N)CCCNC(=N)N)C(=O)N[C@@H](CCC(=O)O)C(=O)N[C@@H](CC(C)C)C(=O)NCC(=O)N[C@@H](CCCNC(=N)N)C(=O)N[C@@H](CCC(=O)O)C(=O)N[C@@H](CS)C(=O)N[C@@H](CC(C)C)C(=O)N[C@@H](CC(N)=O)C(=O)N[C@@H](CC(C)C)C(=O)N[C@@H](Cc1c[nH]c2ccccc12)C(N)=O` [RM3] (H-RRRRRRRRRRCMELGRECLNLW-NH2; N-terminus assumed), in the data set on PC3 xenograft tumor, the “decrease of Ki67 in tumor (IHC)” value was about 65%, the “increase of caspase-3 expression in tumor (IHC)” value is recorded as about 1.8 fold, the “reduction in METTL3 expression in tumor (IHC)” value is listed as about 50% and the “reduction in m6A levels in tumor (IHC)” value is recorded as about 50%. Besides, the “tumor growth compared to R9 or PBS control groups” value with PC3 xenograft tumor (setting [5]) was “significant suppression of tumor growth”. Further, the “fold reduction in colony formation” value with PC3 or DU145 is given as about 20 fold. For the same molecule, on METTL3, the METTL3 half-life entry is on record as “dramatically reduced half-life”. The “EdU signal relative to PBS control group” value in the data set on PCa cells is recorded as about 47.0%. Also, in the data set on m6A modification, the “m6A modification level relative to R9 and PBS treatment groups” value is reported as about 20%.

What is called share remaining is the share of the starting amount still present when the sample was taken. Take `CSCC[C@@H]1NC(=O)[C@@H](NC(=O)[C@H](CCCNC(=N)N)NC(=O)[C@H](CCCNC(=N)N)NC(=O)[C@H](CCCNC(=N)N)NC(=O)[C@H](CCCNC(=N)N)NC(=O)[C@H](CCCNC(=N)N)NC(=O)[C@H](CCCNC(=N)N)NC(=O)[C@H](CCCNC(=N)N)NC(=O)[C@H](CCCNC(=N)N)NC(=O)[C@H](CCCNC(=N)N)NC(=O)[C@@H](N)CCCNC(=N)N)CSCc2ccc(cc2)-c2ccc(cc2)CSC[C@@H](C(=O)N[C@@H](CC(C)C)C(=O)N[C@@H](CC(N)=O)C(=O)N[C@@H](CC(C)C)C(=O)N[C@@H](Cc2c[nH]c3ccccc23)C(N)=O)NC(=O)[C@H](CCC(=O)O)NC(=O)[C@H](CCCNC(=N)N)NC(=O)CNC(=O)[C@H](CC(C)C)NC(=O)[C@H](CCC(=O)O)NC1=O` [RSM3] (H-RRRRRRRRRRCMELGRECLNLW-NH2; linker 11-18 via Biphenyl(4,4'-CH2)2; N-terminus assumed): the “IC50 in PC3, RSM3 vs STM2457” value in the data set with PC3 cells [1] was determined as 26.5 ± 1.2. Moreover, in data set [2], the fraction remaining at 6 h, 200 µM was about 41.8%. In the data set on PC3 xenograft tumor, the “decrease of Ki67 in tumor (IHC)” value is about 65%, the “increase of caspase-3 expression in tumor (IHC)” value is on record as about 1.8 fold, the “reduction in METTL3 expression in tumor (IHC)” value is given as about 50% and the “reduction in m6A levels in tumor (IHC)” value was about 50%. Moreover, the “average tumor mass relative to PBS group” value in the data set with PC3 xenograft tumor was about 37%. Also, in the data set with PC3 xenograft tumor (setting [5]), the “tumor growth compared to R9 or PBS control groups” value is reported as “significant suppression of tumor growth” and the “tumor volume, fold smaller than controls” value is 2∼3 fold. In addition, the “cells that entered apoptosis, DU145” value with DU145 is given as about 30%. Moreover, in the data set with PC3 cells [3], the “late-stage share of total apoptotic PC3 cells” value was about 90% and the “proportion of apoptotic cells, fold higher than RM3” value is given as “approximately 2 fold”. Also, in the data set with PC3 cells [3] (PBS 4%), the “cells that entered apoptosis, PC3” value is given as about 60%. Moreover, the “reduction of METTL3-METTL14 interaction” value at METTL3/METTL14 complex is given as “fifty”. In the data set with PC3 or DU145, the “fold reduction in colony formation” value is given as about 20 fold. On METTL3, the METTL3 half-life entry was “dramatically reduced half-life” and the “METTL3 (and METTL14) protein levels by WB” value is “reduced”. For the same molecule, the “IC50 in DU145, RSM3 vs STM2457” value in the data set on DU145 cells came to 33.6 ± 1.5. Moreover, the “cells arrested in sub-G1 phase, PC3” value in the data set on PC3 cells [4] is listed as about 29.2%. For the same molecule, in the data set with ASPC-1 xenograft tumors, the “tumor weight, lighter than PBS- and R9-treated controls” value is about 50%. In addition, the “EdU signal relative to PBS control group” value in the data set with PCa cells is about 35.0%. In the data set on m6A modification, the “m6A modification level relative to R9 and PBS treatment groups” value was about 20%.

Consider STM2457 [reference compound], for which, in the data set on PC3 cells [1], the “IC50 in PC3, RSM3 vs STM2457” value was determined as 95.5 ± 3.6. The “average tumor mass relative to PBS group” value in the data set with PC3 xenograft tumor was found to be 70%. Further, the “METTL3 (and METTL14) protein levels by WB” value at METTL3 is “no influence”. For the same molecule, the “IC50 in DU145, RSM3 vs STM2457” value in the data set with DU145 cells was determined as 149.3 ± 10.1.
